US20240408169A1 (priority 2023, published 2024)
Where two headings read alike, the source gives them in different places. *1 amine or outer side, *2 acyl side, *3 side chain or, on linkers, in order; H or OH if unused. Where a SMILES comes first, the peptide text is derived from it. Bridges are numbered along the chain shown (N, C = ends). [ ]: non-standard residue; d: D form. The star is where a group is joined. X148 = CN([C@@H](Cc1cc(Cl)ccc1-c1ccc(S(C)(=O)=O)nc1)C(=O)[*:2])[*:1]; X123 = CN([C@@H](Cc1cc(Cl)ccc1-c1ccc[nH]c1=O)C(=O)[*:2])[*:1]; X26 = CN([C@@H](Cc1cc(F)ccc1-c1cnn(C2CC2)c1)C(=O)[*:2])[*:1]; NMehhhLys(Me) = CN([C@@H](CCCCCCCN(C)[*:3])C(=O)[*:2])[*:1]; X139 = Cc1[nH]ncc1-c1ccc(Cl)cc1C[C@@H](C(=O)[*:2])N(C)[*:1]; X168 = Cc1ncc(-c2ccc(Cl)cc2C[C@@H](C(=O)[*:2])N(C)[*:1])o1; X188 = CN([C@@H](Cc1cc(Cl)ccc1-c1ccn(C)n1)C(=O)[*:2])[*:1]; X22 = CN([C@@H](Cc1cc(Cl)ccc1-c1cnn(C)c1)C(=O)[*:2])[*:1]; X154 = Cc1oncc1-c1ccc(Cl)cc1C[C@@H](C(=O)[*:2])N(C)[*:1]; X199 = CN([C@@H](Cc1cc(Cl)ccc1C1=CCOC1)C(=O)[*:2])[*:1]; NMe(hhhLys) = CN([C@@H](CCCCCCCN[*:3])C(=O)[*:2])[*:1]; cBuCO(3,3-F2-1-CF3) = O=C(C1(C(F)(F)F)CC(F)(F)C1)*; Pro(trans-4-F) = O=C(O)[C@@H]1C[C@@H](F)CN1; Pivaloyl(3,3,3-F3) = CC(C)(C(=O)*)C(F)(F)F; Gly(cPr) = N[C@H](C(=O)O)C1CC1

Legend:
CyclinB1/CDK1 = target: T1, CyclinB1/CDK1 (Homo sapiens, UniProt P14635); assay: Fluorescence Polarization (FP) competitive binding assay, Cyclin B1/Cdk1;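 further: fluorescence polarization read after equilibration at room temperature, with IC50 taken from serially diluted dose-response curves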
T1 construct: purchased Eurofins, discovery 14-450

CyclinE1/CDK2 = target: T2, CyclinE1/CDK2 (Homo sapiens, UniProt P24864); assay: Fluorescence Polarization (FP) competitive binding assay, Cyclin E1/Cdk2;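 further: readings taken after two-hour equilibration at room temperature in HEPES buffer with NaCl, DTT, NP-40 and BSA, IC50 fitted from eight-concentration serial dilution series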
T2 construct: purchased Eurofins, discovery 14-475

CyclinA2/CDK2 = target: T3, CyclinA2/CDK2 (Homo sapiens, UniProt P20248); assay: Fluorescence Polarization (FP) competitive binding assay, Cyclin A2/Cdk2;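 further: plates equilibrated two hours at room temperature before polarization reading, IC50 fitted from eight-concentration compound titration curves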
T3 construct: purchased CRELUX Protein Services

NCI-H1048 cells = assay: MTT proliferation assay, NCI-H1048; format: cell-based; conditions: 5 days compound exposure, 1:3 serial dilution starting at 10 μM;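 further: Dose-response in 96-well plates over 8 or 10 concentration points, with exposure spanning 3-4 cell doublings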
OVCAR3 cells = assay: MTT proliferation assay, OVCAR3; format: cell-based; conditions: 5 days compound exposure, 1:3 serial dilution starting at 10 μM;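 further: compound given as an 8- or 10-point series, one day after plating, with exposure covering roughly 3-4 cell doublings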
[1] = read-out: Cyclin B FP IC50; 10 nM Cyclin B1/Cdk1, 2 nM FAM probe; average of 2-3 independent experiments
[2] = read-out: Cyclin A FP IC50, 8 nM Cyclin A2/Cdk2, 2 nM FAM probe, average of 2-3 independent experiments

`CC(C)C[C@@H]1NC(=O)[C@@H](N(C)C(=O)[C@@H](NC(=O)[C@@H]2C[C@@H](F)CN2C(=O)C2(C(F)(F)F)CC(F)(F)C2)C2CC2)CCCCCCCN(C)C(=O)[C@H](Cc2cc(Cl)ccc2-c2ccc(S(C)(=O)=O)nc2)N(C)C1=O` [Example 201] ({cBuCO(3,3-F2-1-CF3)}-[Pro(trans-4-F)][Gly(cPr)][NMehhhLys(Me)]L[X148]; lactam 3-C) gave an IC50 (CyclinB1/CDK1; [1]) of 20 nM, an IC50 (CyclinE1/CDK2) of 1950 nM and an IC50 (CyclinA2/CDK2) of 30 nM. It also gave a GI50 (NCI-H1048 cells) of 60 nM and a GI50 (OVCAR3 cells) of 60 nM.

With `CC(C)C[C@@H]1NC(=O)[C@@H](N(C)C(=O)[C@@H](NC(=O)[C@@H]2C[C@@H](F)CN2C(=O)C(C)(C)C(F)(F)F)C2CC2)CCCCCCCN(C)C(=O)[C@H](Cc2cc(Cl)ccc2-c2cnn(C)c2)N(C)C1=O` [Example 204] ({Pivaloyl(3,3,3-F3)}-[Pro(trans-4-F)][Gly(cPr)][NMehhhLys(Me)]L[X22]; lactam 3-C) the IC50 (CyclinB1/CDK1; [1]) was 20 nM, the IC50 (CyclinE1/CDK2) was 160 nM and the IC50 (CyclinA2/CDK2; [2]) was 20 nM. For the same compound, the GI50 (NCI-H1048 cells) was 10 nM and the GI50 (OVCAR3 cells) was 10 nM.

In the case of `CC(C)C[C@@H]1NC(=O)[C@@H](N(C)C(=O)[C@@H](NC(=O)[C@@H]2C[C@@H](F)CN2C(=O)C2(C(F)(F)F)CC(F)(F)C2)C2CC2)CCCCCCCN(C)C(=O)[C@H](Cc2cc(Cl)ccc2-c2ccn(C)n2)N(C)C1=O` [Example 205] ({cBuCO(3,3-F2-1-CF3)}-[Pro(trans-4-F)][Gly(cPr)][NMehhhLys(Me)]L[X188]; lactam 3-C), the IC50 (CyclinB1/CDK1; [1]) is reported as 20 nM, the IC50 (CyclinE1/CDK2) is reported as 480 nM and the IC50 (CyclinA2/CDK2) is reported as 30 nM. For the same compound, the GI50 (NCI-H1048 cells) was 20 nM and the GI50 (OVCAR3 cells) was 30 nM.

`Cc1ncc(-c2ccc(Cl)cc2C[C@H]2C(=O)N(C)CCCCCCC[C@H](N(C)C(=O)[C@@H](NC(=O)[C@@H]3C[C@@H](F)CN3C(=O)C3(C(F)(F)F)CC(F)(F)C3)C3CC3)C(=O)N[C@@H](CC(C)C)C(=O)N2C)o1` [Example 206] ({cBuCO(3,3-F2-1-CF3)}-[Pro(trans-4-F)][Gly(cPr)][NMehhhLys(Me)]L[X168]; lactam 3-C) gave an IC50 (CyclinB1/CDK1; [1]) of 20 nM, an IC50 (CyclinE1/CDK2) of 200 nM and an IC50 (CyclinA2/CDK2; [2]) of 20 nM. It also gave a GI50 (NCI-H1048 cells) of 10 nM and a GI50 (OVCAR3 cells) of 20 nM.

`CC(C)C[C@@H]1NC(=O)[C@@H](N(C)C(=O)[C@@H](NC(=O)[C@@H]2C[C@@H](F)CN2C(=O)C2(C(F)(F)F)CC(F)(F)C2)C2CC2)CCCCCCCN(C)C(=O)[C@H](Cc2cc(Cl)ccc2-c2ccc[nH]c2=O)N(C)C1=O` [Example 208] ({cBuCO(3,3-F2-1-CF3)}-[Pro(trans-4-F)][Gly(cPr)][NMehhhLys(Me)]L[X123]; lactam 3-C) was tested, and the IC50 (CyclinB1/CDK1; [1]) was 20 nM, the IC50 (CyclinE1/CDK2) was 6400 nM and the IC50 (CyclinA2/CDK2) was 210 nM. It also gave a GI50 (NCI-H1048 cells) of 830 nM and a GI50 (OVCAR3 cells) of 1960 nM.

`CC(C)C[C@@H]1NC(=O)[C@@H](N(C)C(=O)[C@@H](NC(=O)[C@@H]2C[C@@H](F)CN2C(=O)C2(C(F)(F)F)CC(F)(F)C2)C2CC2)CCCCCCCN(C)C(=O)[C@H](Cc2cc(Cl)ccc2C2=CCOC2)N(C)C1=O` [Example 209] ({cBuCO(3,3-F2-1-CF3)}-[Pro(trans-4-F)][Gly(cPr)][NMehhhLys(Me)]L[X199]; lactam 3-C) gave an IC50 (CyclinB1/CDK1; [1]) of 20 nM, an IC50 (CyclinE1/CDK2) of 540 nM and an IC50 (CyclinA2/CDK2; [2]) of 20 nM. For the same compound, the GI50 (NCI-H1048 cells) was 10 nM and the GI50 (OVCAR3 cells) was 20 nM.

Work on `Cc1[nH]ncc1-c1ccc(Cl)cc1C[C@H]1C(=O)N(C)CCCCCCC[C@H](N(C)C(=O)[C@@H](NC(=O)[C@@H]2C[C@@H](F)CN2C(=O)C2(C(F)(F)F)CC(F)(F)C2)C2CC2)C(=O)N[C@@H](CC(C)C)C(=O)N1C` [Example 211] ({cBuCO(3,3-F2-1-CF3)}-[Pro(trans-4-F)][Gly(cPr)][NMehhhLys(Me)]L[X139]; lactam 3-C) yielded an IC50 (CyclinB1/CDK1; [1]) of 20 nM, an IC50 (CyclinE1/CDK2) of 1110 nM and an IC50 (CyclinA2/CDK2) of 50 nM. The GI50 (NCI-H1048 cells) was 20 nM and the GI50 (OVCAR3 cells) was 30 nM.

`Cc1oncc1-c1ccc(Cl)cc1C[C@H]1C(=O)N(C)CCCCCCC[C@H](N(C)C(=O)[C@@H](NC(=O)[C@@H]2C[C@@H](F)CN2C(=O)C2(C(F)(F)F)CC(F)(F)C2)C2CC2)C(=O)N[C@@H](CC(C)C)C(=O)N1C` [Example 212] ({cBuCO(3,3-F2-1-CF3)}-[Pro(trans-4-F)][Gly(cPr)][NMehhhLys(Me)]L[X154]; lactam 3-C) showed an IC50 (CyclinB1/CDK1; [1]) of 20 nM, an IC50 (CyclinE1/CDK2) of 4160 nM and an IC50 (CyclinA2/CDK2) of 70 nM. The GI50 (NCI-H1048 cells) was 80 nM and the GI50 (OVCAR3 cells) was 80 nM.

Compound `CC(C)C[C@@H]1NC(=O)[C@@H](N(C)C(=O)[C@@H](NC(=O)[C@@H]2C[C@@H](F)CN2C(=O)C2(C(F)(F)F)CC(F)(F)C2)C2CC2)CCCCCCCNC(=O)[C@H](Cc2cc(F)ccc2-c2cnn(C3CC3)c2)N(C)C1=O` [Example 213] ({cBuCO(3,3-F2-1-CF3)}-[Pro(trans-4-F)][Gly(cPr)][NMe(hhhLys)]L[X26]; lactam 3-C) has an IC50 (CyclinB1/CDK1; 10 nM Cyclin B1/Cdk1, 2 nM FAM probe; average of 2-3 independent experiments; read-out: Cyclin B FP IC50) of 20 nM, an IC50 (CyclinE1/CDK2; 10 nM Cyclin E1/Cdk2, 2 nM FAM probe, average of 2-3 independent experiments, read-out: Cyclin E FP IC50) of 190 nM and an IC50 (CyclinA2/CDK2; 8 nM Cyclin A2/Cdk2, 2 nM FAM probe, average of 2-3 independent experiments, read-out: Cyclin A FP IC50) of 30 nM. The GI50 (NCI-H1048 cells) was 10 nM and the GI50 (OVCAR3 cells) was 10 nM.
